{
  "source": "the supplement of paper PMC10307832",
  "experiment_in_all_cases": "relative viability (nuclei count vs DMSO), 5 days (fraction); higher = more cells survive",
  "key": {"[1]": {"system": "LCLC-103H", "in_short": "(§1)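 Lung cancer cell lines, seeded in 1536-well plates, were treated the following day by pin tool with a single drug or with five library-drug doses (not always all listed) in √10 steps on top of a fixed anchor-drug dose. Cells were fixed and nuclei stained in one step after 5 days, and nuclei were counted. Relative viability is the nuclei count for treated wells divided by that for vehicle wells, reported as medians of duplicate plates.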"}, "[2]": {"system": "LXF-289", "in_short": "as §1"}, "[3]": {"system": "LCLC-97TM1", "in_short": "as §1"}, "[4]": {"system": "NCI-H1650", "in_short": "as §1"}, "[5]": {"system": "NCI-H1437", "in_short": "as §1"}, "[6]": {"system": "NCI-H1792", "in_short": "as §1"}, "[7]": {"system": "NCI-H2405", "in_short": "as §1"}, "[8]": {"system": "NCI-H1793", "in_short": "as §1"}, "[9]": {"system": "HCC-827", "in_short": "as §1"}, "[10]": {"system": "SK-LU-1", "in_short": "as §1"}, "[11]": {"system": "NCI-H1395", "in_short": "as §1"}, "[12]": {"system": "NCI-H2087", "in_short": "as §1"}, "[13]": {"system": "NCI-H322M", "in_short": "as §1"}, "[14]": {"system": "NCI-H1944", "in_short": "as §1"}, "[15]": {"system": "NCI-H3122", "in_short": "as §1"}, "[16]": {"system": "NCI-H647", "in_short": "as §1"}, "[17]": {"system": "RERF-LC-KJ", "in_short": "as §1"}, "[18]": {"system": "201T", "in_short": "as §1"}, "[19]": {"system": "BEN", "in_short": "as §1"}, "[20]": {"system": "NCI-H727", "in_short": "as §1"}},
  "data": [
    {"smiles": "COc1cc2nccc(Oc3ccc(NC(=O)Nc4cc(C)on4)c(Cl)c3)c2cc1OC", "note": "[Tivozanib] + Nc1ncn([C@H]2C[C@H](O)[C@@H](CO)O2)c(=O)n1 [Decitabine] (partner 2 µM)", "values": [
      {"measurement": "relative viability", "setting": "[1]; first compound 0.005 µM", "result": 0.615},
      {"measurement": "relative viability", "setting": "[1]; first compound 0.01581 µM", "result": 0.708},
      {"measurement": "relative viability", "setting": "[1]; first compound 0.05 µM", "result": 0.732},
      {"measurement": "relative viability", "setting": "[1]; first compound 0.1581 µM", "result": 0.685},
      {"measurement": "relative viability", "setting": "[1]; first compound 0.5 µM", "result": 0.744},
      {"measurement": "relative viability", "setting": "[2]; first compound 0.005 µM", "result": 0.331},
      {"measurement": "relative viability", "setting": "[2]; first compound 0.01581 µM", "result": 0.363},
      {"measurement": "relative viability", "setting": "[2]; first compound 0.05 µM", "result": 0.35},
      {"measurement": "relative viability", "setting": "[2]; first compound 0.1581 µM", "result": 0.346},
      {"measurement": "relative viability", "setting": "[2]; first compound 0.5 µM", "result": 0.404},
      {"measurement": "relative viability", "setting": "[3]; first compound 0.005 µM", "result": 0.215},
      {"measurement": "relative viability", "setting": "[3]; first compound 0.01581 µM", "result": 0.22},
      {"measurement": "relative viability", "setting": "[3]; first compound 0.05 µM", "result": 0.297},
      {"measurement": "relative viability", "setting": "[3]; first compound 0.1581 µM", "result": 0.221},
      {"measurement": "relative viability", "setting": "[3]; first compound 0.5 µM", "result": 0.19},
      {"measurement": "relative viability", "setting": "[4]; first compound 0.005 µM", "result": 0.412},
      {"measurement": "relative viability", "setting": "[4]; first compound 0.01581 µM", "result": 0.493},
      {"measurement": "relative viability", "setting": "[4]; first compound 0.05 µM", "result": 0.507},
      {"measurement": "relative viability", "setting": "[4]; first compound 0.1581 µM", "result": 0.508},
      {"measurement": "relative viability", "setting": "[4]; first compound 0.5 µM", "result": 0.411},
      {"measurement": "relative viability", "setting": "[5]; first compound 0.005 µM", "result": 0.629},
      {"measurement": "relative viability", "setting": "[5]; first compound 0.01581 µM", "result": 0.582},
      {"measurement": "relative viability", "setting": "[5]; first compound 0.05 µM", "result": 0.594},
      {"measurement": "relative viability", "setting": "[5]; first compound 0.1581 µM", "result": 0.653},
      {"measurement": "relative viability", "setting": "[5]; first compound 0.5 µM", "result": 0.564},
      {"measurement": "relative viability", "setting": "[6]; first compound 0.005 µM", "result": 0.514},
      {"measurement": "relative viability", "setting": "[6]; first compound 0.01581 µM", "result": 0.538},
      {"measurement": "relative viability", "setting": "[6]; first compound 0.05 µM", "result": 0.574},
      {"measurement": "relative viability", "setting": "[6]; first compound 0.5 µM", "result": 0.499},
      {"measurement": "relative viability", "setting": "[7]; first compound 0.005 µM", "result": 0.676},
      {"measurement": "relative viability", "setting": "[7]; first compound 0.01581 µM", "result": 0.771},
      {"measurement": "relative viability", "setting": "[7]; first compound 0.05 µM", "result": 0.756},
      {"measurement": "relative viability", "setting": "[7]; first compound 0.1581 µM", "result": 0.706},
      {"measurement": "relative viability", "setting": "[7]; first compound 0.5 µM", "result": 0.591},
      {"measurement": "relative viability", "setting": "[8]; first compound 0.005 µM", "result": 0.474},
      {"measurement": "relative viability", "setting": "[8]; first compound 0.01581 µM", "result": 0.518},
      {"measurement": "relative viability", "setting": "[8]; first compound 0.05 µM", "result": 0.562},
      {"measurement": "relative viability", "setting": "[8]; first compound 0.5 µM", "result": 0.481},
      {"measurement": "relative viability", "setting": "[9]; first compound 0.005 µM", "result": 0.264},
      {"measurement": "relative viability", "setting": "[9]; first compound 0.01581 µM", "result": 0.345},
      {"measurement": "relative viability", "setting": "[9]; first compound 0.05 µM", "result": 0.311},
      {"measurement": "relative viability", "setting": "[9]; first compound 0.1581 µM", "result": 0.289},
      {"measurement": "relative viability", "setting": "[9]; first compound 0.5 µM", "result": 0.268},
      {"measurement": "relative viability", "setting": "[10]; first compound 0.005 µM", "result": 0.647},
      {"measurement": "relative viability", "setting": "[10]; first compound 0.01581 µM", "result": 0.643},
      {"measurement": "relative viability", "setting": "[10]; first compound 0.05 µM", "result": 0.644},
      {"measurement": "relative viability", "setting": "[10]; first compound 0.1581 µM", "result": 0.392},
      {"measurement": "relative viability", "setting": "[10]; first compound 0.5 µM", "result": 0.618},
      {"measurement": "relative viability", "setting": "[11]; first compound 0.005 µM", "result": 0.671},
      {"measurement": "relative viability", "setting": "[11]; first compound 0.01581 µM", "result": 0.672},
      {"measurement": "relative viability", "setting": "[11]; first compound 0.05 µM", "result": 0.732},
      {"measurement": "relative viability", "setting": "[11]; first compound 0.1581 µM", "result": 0.713},
      {"measurement": "relative viability", "setting": "[11]; first compound 0.5 µM", "result": 0.617},
      {"measurement": "relative viability", "setting": "[12]; first compound 0.005 µM", "result": 0.275},
      {"measurement": "relative viability", "setting": "[12]; first compound 0.01581 µM", "result": 0.249},
      {"measurement": "relative viability", "setting": "[12]; first compound 0.05 µM", "result": 0.352},
      {"measurement": "relative viability", "setting": "[12]; first compound 0.1581 µM", "result": 0.254},
      {"measurement": "relative viability", "setting": "[12]; first compound 0.5 µM", "result": 0.348},
      {"measurement": "relative viability", "setting": "[13]; first compound 0.005 µM", "result": 0.632},
      {"measurement": "relative viability", "setting": "[13]; first compound 0.01581 µM", "result": 0.55},
      {"measurement": "relative viability", "setting": "[13]; first compound 0.05 µM", "result": 0.762},
      {"measurement": "relative viability", "setting": "[13]; first compound 0.1581 µM", "result": 0.656},
      {"measurement": "relative viability", "setting": "[13]; first compound 0.5 µM", "result": 0.686},
      {"measurement": "relative viability", "setting": "[14]; first compound 0.005 µM", "result": 0.402},
      {"measurement": "relative viability", "setting": "[14]; first compound 0.01581 µM", "result": 0.473},
      {"measurement": "relative viability", "setting": "[14]; first compound 0.05 µM", "result": 0.447},
      {"measurement": "relative viability", "setting": "[14]; first compound 0.1581 µM", "result": 0.459},
      {"measurement": "relative viability", "setting": "[14]; first compound 0.5 µM", "result": 0.416},
      {"measurement": "relative viability", "setting": "[15]; first compound 0.005 µM", "result": 0.462},
      {"measurement": "relative viability", "setting": "[15]; first compound 0.01581 µM", "result": 0.427},
      {"measurement": "relative viability", "setting": "[15]; first compound 0.05 µM", "result": 0.429},
      {"measurement": "relative viability", "setting": "[15]; first compound 0.1581 µM", "result": 0.401},
      {"measurement": "relative viability", "setting": "[15]; first compound 0.5 µM", "result": 0.563},
      {"measurement": "relative viability", "setting": "[16]; first compound 0.005 µM", "result": 0.361},
      {"measurement": "relative viability", "setting": "[16]; first compound 0.01581 µM", "result": 0.362},
      {"measurement": "relative viability", "setting": "[16]; first compound 0.05 µM", "result": 0.302},
      {"measurement": "relative viability", "setting": "[16]; first compound 0.1581 µM", "result": 0.315},
      {"measurement": "relative viability", "setting": "[16]; first compound 0.5 µM", "result": 0.394},
      {"measurement": "relative viability", "setting": "[17]; first compound 0.005 µM", "result": 0.585},
      {"measurement": "relative viability", "setting": "[17]; first compound 0.01581 µM", "result": 0.646},
      {"measurement": "relative viability", "setting": "[17]; first compound 0.05 µM", "result": 0.657},
      {"measurement": "relative viability", "setting": "[17]; first compound 0.1581 µM", "result": 0.637},
      {"measurement": "relative viability", "setting": "[17]; first compound 0.5 µM", "result": 0.723},
      {"measurement": "relative viability", "setting": "[18]; first compound 0.005 µM", "result": 0.85},
      {"measurement": "relative viability", "setting": "[18]; first compound 0.01581 µM", "result": 0.855},
      {"measurement": "relative viability", "setting": "[18]; first compound 0.05 µM", "result": 0.87},
      {"measurement": "relative viability", "setting": "[18]; first compound 0.1581 µM", "result": 0.854},
      {"measurement": "relative viability", "setting": "[18]; first compound 0.5 µM", "result": 0.896},
      {"measurement": "relative viability", "setting": "[19]; first compound 0.005 µM", "result": 0.725},
      {"measurement": "relative viability", "setting": "[19]; first compound 0.01581 µM", "result": 0.703},
      {"measurement": "relative viability", "setting": "[19]; first compound 0.05 µM", "result": 0.761},
      {"measurement": "relative viability", "setting": "[19]; first compound 0.1581 µM", "result": 0.471},
      {"measurement": "relative viability", "setting": "[19]; first compound 0.5 µM", "result": 0.563},
      {"measurement": "relative viability", "setting": "[20]; first compound 0.005 µM", "result": 0.836},
      {"measurement": "relative viability", "setting": "[20]; first compound 0.01581 µM", "result": 0.929},
      {"measurement": "relative viability", "setting": "[20]; first compound 0.05 µM", "result": 0.85},
      {"measurement": "relative viability", "setting": "[20]; first compound 0.1581 µM", "result": 0.59},
      {"measurement": "relative viability", "setting": "[20]; first compound 0.5 µM", "result": 0.905}
    ]}
  ]
}
